The target of assay [1] is T1, VMAT2 (Rattus norvegicus, UniProt Q01827).
T1 construct: conducted using isolated synaptic vesicle preparations; from tissue; host or cells: rat striatum, isolated synaptic vesicles
Nature of the assay: [3H]Dopamine ([3H]DA) uptake assay, vesicular preparation. In kind it is biochemical.
Protocol: [^3H]Dopamine ([^3H]DA) Uptake Assay, Vesicular Preparation
Homogenates were centrifuged (2,000 g for 10 min at 4° C.), and then the supernatants were centrifuged (10,000 g for 30 min at 4° C.). Pellets were resuspended in 2 ml of 0.32 M sucrose solution and subjected to osmotic shock by adding 7 ml of ice-cold MilliQ water to the preparation. After 1 min, osmolarity was restored by adding 900 μl of 0.25 M HEPES buffer and 900 μl of 1.0 M potassium tartrate solution. Samples were centrifuged (20,000 g for 20 min at 4° C.), and the supernatants were centrifuged (55,000 g for 1 hr at 4° C.), followed by addition of 100 μl of 10 mM MgSO4, 100 μl of 0.25 M HEPES and 100 μl of 1.0 M potassium tartrate solution prior to the final centrifugation (100,000 g for 45 min at 4° C.). Final pellets were resuspended in 2.4 ml of assay buffer (25 mM HEPES, 100 mM potassium tartrate, 50 μM EGTA, 100 μM EDTA, 1.7 mM ascorbic acid, 2 mM ATP-Mg^2+, pH 7.4). Aliquots of the vesicular suspension (100 μl) were added to tubes containing assay buffer, various concentrations of compound (0.1 nM-10 mM) and 0.1 μM [^3H]DA in a final volume of 500 and incubated at 37° C. for 8 min. […] Reactions were terminated by filtration, and radioactivity retained by the filters was determined by liquid scintillation spectrometry (Tri-Carb 2100TR liquid scintillation analyzer; PerkinElmer Life and Analytical Sciences, Boston, Mass.).

Assay [2] concerns the target T2, hERG channel (Homo sapiens, UniProt Q12809).
T2 construct: expressed in transfected cells
Nature of the assay: [3H]Dofetilide binding assay, HEK-293 cell membrane preparation. Conditions: HEK-293 cell membranes expressing hERG, 5 nM [3H]dofetilide; read-out: hERG [3H]Dofetilide Binding Inhibition Mean ± SEM (IC50). The procedure: [^3H]Dofetilide Binding Assay, HEK-293 Cell Membrane Preparation
[^3H]Dofetilide binding assays were conducted using commercially available HEK-293 cell membranes which stably express the hERG channel. Membranes were suspended in assay buffer (50 mM Tris, 10 mM KCl, 1 mM MgCl2, pH 7.4) prior to the experiment. Assays were performed in duplicate in a total volume of 250 μL. Aliquots of the HEK-293 cell membrane suspension which contained 5 μg membrane protein were added to tubes containing assay buffer, 5 nM [^3H]dofetilide and a range of concentrations of analog (10 nM-100 μM). Nonspecific binding was determined in the presence of amitriptyline (1 mM). Samples were incubated for 1 hr. at 24° C., followed by rapid filtration. Radioactivity retained by the filters was determined by liquid scintillation spectrometry as described above for the [^3H]DA uptake assay. The affinity for the [^3H]dofetilide binding site on the hERG channel expressed in the HEK-293 cellular membrane was determined from the analog concentration response curves.
In general terms: hERG is a cardiac potassium channel; its block is linked to QT prolongation.

In assay [3] the target is T1, VMAT2. Nature of the assay: [3H]Dihydrotetrabenazine ([3H]DTBZ) binding assay, vesicular preparation. Conditions: rat brain synaptic vesicles, 3 nM [3H]DTBZ; read-out: Inhibition of [3H]DTBZ binding (Ki) VMAT2.
Protocol: [^3H]Dihydrotetrabenazine ([^3H]DTBZ) Binding Assay, Vesicular Preparation
The resulting supernatant (S1) was then centrifuged at 22,000 g for 10 min at 4° C. The synaptosomal pellets (P2) were homogenized in 18 mL of ice-cold Milli-Q water and exposed for 5 min for lysing synaptosomes. Osmolarity was restored by addition of 2 mL of 25 mM HEPES with 100 mM dipotassium tartrate (pH 7.5). Samples were centrifuged at 20,000 g for 20 min at 4° C. to remove lysed synaptosomal membranes. MgSO4 (1 mM) was added to the supernatant (S3), and was centrifuged at 100,000 g for 45 min at 4° C. […] Aliquot parts (100 μL) of suspension of vesicle membrane protein were incubated in assay buffer (25 mM HEPES, 100 mM dipotassium tartrate, 5 mM MgSO4, 0.1 mM EDTA and 0.05 mM EGTA, pH 7.5, at 25° C.) in the presence of 3 nM [^3H]DTBZ and at least 7 concentrations (1 nM-1 mM) of compound for 1 hr at room temperature. Nonspecific binding was determined in the presence of 20 μM tetrabenazine, a standard compound. Assays were performed in duplicate using a 96-well plate format. Reactions were terminated by filtration of samples on a Unifilter-96 GF/B filter plates (presoaked in 0.5% polyethylenimine), using a FilterMate harvester (Packard BioScience Co., Meriden, Conn.).
After washing 5 times with 350 μL of the ice-cold wash buffer (25 mM HEPES, 100 mM dipotassium tartrate, 5 mM MgSO4 and 10 mM NaCl, pH 7.5), filter plates were dried, sealed and each well filled with 40 μL Packard's MicroScint 20 cocktail. Bound [^3H]DTBZ was measured using a Packard TopCount NXT scintillation counter with a Packard Windows NT based operating system.
The mark [4] stands for this setting: rat striatal synaptic vesicles, 0.1 μM [3H]DA, read-out: [3H]DA Uptake (Ki) VMAT2.

Molecules are shown by their SMILES. Values joined by “and” are separate entries in the source; they are usually repeats but may differ in a detail not shown here. Equal entries are not always repeated.

T2 sequence (Q12809 whole entry): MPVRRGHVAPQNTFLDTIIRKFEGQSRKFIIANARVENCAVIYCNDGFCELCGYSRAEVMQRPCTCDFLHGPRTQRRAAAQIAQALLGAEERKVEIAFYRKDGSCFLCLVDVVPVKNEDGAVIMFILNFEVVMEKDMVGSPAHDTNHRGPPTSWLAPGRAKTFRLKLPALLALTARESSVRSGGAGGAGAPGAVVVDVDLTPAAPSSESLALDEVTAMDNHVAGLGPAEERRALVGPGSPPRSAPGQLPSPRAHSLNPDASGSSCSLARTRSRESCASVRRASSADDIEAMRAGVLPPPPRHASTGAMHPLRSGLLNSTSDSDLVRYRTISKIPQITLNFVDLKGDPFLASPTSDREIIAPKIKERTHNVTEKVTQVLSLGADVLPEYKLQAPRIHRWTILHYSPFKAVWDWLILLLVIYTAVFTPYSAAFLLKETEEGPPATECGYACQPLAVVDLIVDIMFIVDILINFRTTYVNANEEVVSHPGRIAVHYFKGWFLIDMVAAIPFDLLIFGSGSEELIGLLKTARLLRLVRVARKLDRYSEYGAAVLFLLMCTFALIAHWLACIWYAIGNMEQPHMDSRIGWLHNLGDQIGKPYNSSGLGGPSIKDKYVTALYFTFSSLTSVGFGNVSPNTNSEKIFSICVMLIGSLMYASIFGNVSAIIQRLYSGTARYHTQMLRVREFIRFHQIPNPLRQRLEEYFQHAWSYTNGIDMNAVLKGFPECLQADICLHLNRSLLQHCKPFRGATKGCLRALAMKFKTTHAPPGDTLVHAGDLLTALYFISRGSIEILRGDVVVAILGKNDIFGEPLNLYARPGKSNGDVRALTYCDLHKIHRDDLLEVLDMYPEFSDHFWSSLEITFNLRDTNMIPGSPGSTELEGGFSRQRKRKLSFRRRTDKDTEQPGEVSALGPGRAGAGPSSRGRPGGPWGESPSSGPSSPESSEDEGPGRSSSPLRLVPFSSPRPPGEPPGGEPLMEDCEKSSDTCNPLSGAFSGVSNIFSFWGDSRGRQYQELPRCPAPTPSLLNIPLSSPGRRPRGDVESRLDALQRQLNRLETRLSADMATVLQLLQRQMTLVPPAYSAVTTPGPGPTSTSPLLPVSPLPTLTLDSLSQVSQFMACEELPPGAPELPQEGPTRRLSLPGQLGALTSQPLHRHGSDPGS
T1 sequence (Q01827 whole entry): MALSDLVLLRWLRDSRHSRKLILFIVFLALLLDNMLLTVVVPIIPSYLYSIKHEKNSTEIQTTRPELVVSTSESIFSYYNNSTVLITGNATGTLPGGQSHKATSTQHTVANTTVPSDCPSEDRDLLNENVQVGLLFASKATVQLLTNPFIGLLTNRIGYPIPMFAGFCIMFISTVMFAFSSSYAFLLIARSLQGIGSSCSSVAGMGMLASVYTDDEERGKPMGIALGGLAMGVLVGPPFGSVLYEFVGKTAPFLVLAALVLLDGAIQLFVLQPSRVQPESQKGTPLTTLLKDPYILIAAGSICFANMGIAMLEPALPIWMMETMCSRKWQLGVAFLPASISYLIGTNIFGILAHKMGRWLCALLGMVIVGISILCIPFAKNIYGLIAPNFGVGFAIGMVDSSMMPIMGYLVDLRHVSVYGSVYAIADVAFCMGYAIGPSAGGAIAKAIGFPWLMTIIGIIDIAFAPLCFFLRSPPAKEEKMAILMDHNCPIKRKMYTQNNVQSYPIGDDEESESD

For orientation: Ki means the equilibrium dissociation constant of an inhibitor or competing ligand from its target. By IC50 is commonly meant the concentration needed to halve the response being measured. Take `COc1ccccc1CCN1CCC(CCc2ccccc2)CC1` [Compound 1, 1-(2-methoxyphenethyl)-4-phenethylpiperidine]: the Ki in assay [1] (setting [4]) is 30 ± 2 nM; in assay [3], 255 ± 26 nM. The IC50 in assay [2] amounted to 534 ± 142 nM.
The like results for `COc1ccc(CCN2CCC(CCc3ccccc3)CC2)cc1OC` [Compound 3] were, in that order, 56 ± 9 nM, 2800 ± 110 nM and 402 ± 72.7 nM.
In the same order, the values of `COc1ccc(CCN2CCC(CCc3ccccc3)CC2)cc1` [Compound 4] are 46 ± 3.7 nM, 1620 ± 190 nM and 622 ± 215 nM.
Consider `COc1ccccc1CCN1CCC(Cc2ccccc2)CC1` [Compound 5], for which the values for the Ki in assay [1] (setting [4]) and in assay [3] were 130 ± 15 nM and 2760 ± 310 nM, respectively.
`COc1cccc(CCN2CCC(Cc3ccccc3)CC2)c1` [Compound 6]: the Ki in assay [1] (setting [4]) is 77 ± 9.8 nM; in assay [3] it was 1530 ± 100 nM. Moreover, in assay [2], the IC50 was determined as 442 ± 221 nM.
Regarding `COc1ccc(CCN2CCC(Cc3ccccc3)CC2)cc1OC` [Compound 7], the Ki in assay [1] (setting [4]) was found to be 240 ± 34 nM; in assay [3], 2990 ± 170 nM.
In the same order, the values of `COc1ccc(CCN2CCC(Cc3ccccc3)CC2)cc1` [Compound 8] are 180 ± 11 nM and 1940 ± 430 nM.
With `Clc1ccccc1CCN1CCC(CCc2ccccc2)CC1` [Compound 10], the results for the Ki in assay [1] (setting [4]) and in assay [3] were 47 ± 6.3 nM and 380 ± 5.8 nM, respectively. Further, the IC50 in assay [2] was 666 ± 26.5 nM.
In the same order, the values of `Fc1ccc(CCN2CCC(CCc3ccccc3)CC2)cc1` [Compound 11] are 32 ± 3.8 nM, 1820 ± 79 nM and 353 ± 36 nM.
For `COc1cccc(CCC2CCN(CCc3ccccc3)CC2)c1` [Compound 14], the Ki in assay [1] (setting [4]) worked out at 56 ± 8.6 nM; in assay [3], 320 ± 15 nM. Also, the IC50 in assay [2] was 631 ± 88.8 nM.
The like results for `COc1cccc(CCC2CCN(CCc3ccccc3OC)CC2)c1` [Compound 15] were, in that order, 40 ± 7.5 nM, 320 ± 55 nM and 790 ± 64.1 nM.
In the same order, the values of `COc1cccc(CCC2CCN(CCc3cccc(OC)c3)CC2)c1` [Compound 16] are 85 ± 10 nM, 230 ± 19 nM and 564 ± 131 nM.
In the same order, the values of `COc1ccc(CCN2CCC(CCc3cccc(OC)c3)CC2)cc1` [Compound 17] are 130 ± 23 nM, 450 ± 130 nM and 600 ± 87.8 nM.
On to `COc1cccc(CCC2CCN(CCc3ccccc3Cl)CC2)c1` [Compound 18], for which the figures for the Ki in assay [1] (setting [4]) and in assay [3] were 420 ± 49 nM and 460 ± 98 nM, respectively.
With `COc1cccc(CCC2CCN(CCc3ccc(F)cc3)CC2)c1` [Compound 19], the Ki worked out at 69 ± 4 nM in assay [1] (setting [4]) and 960 ± 47 nM in assay [3]. The IC50 in assay [2] came to 409 ± 42.9 nM.
On to `COc1ccc(CCC2CCN(CCc3ccccc3)CC2)cc1` [Compound 20], for which the Ki was 110 ± 7 nM in assay [1] (setting [4]) and 510 ± 87 nM in assay [3].
For the compound `COc1ccc(CCC2CCN(CCc3ccccc3OC)CC2)cc1` [Compound 21], the results for the Ki in assay [1] (setting [4]) and in assay [3] were 83 ± 9 nM and 420 ± 19 nM, respectively. Besides, the IC50 in assay [2] is 323 ± 96.4 nM.
In the same order, the values of `COc1ccc(CCC2CCN(CCc3cccc(OC)c3)CC2)cc1` [Compound 22] are 75 ± 4 nM, 230 ± 47 nM and 479 ± 228 nM.
For the compound `COc1ccc(CCC2CCN(CCc3ccc(OC)cc3)CC2)cc1` [Compound 23], the figures for the Ki in assay [1] (setting [4]) and in assay [3] were 160 ± 12 nM and 2470 ± 270 nM, respectively.
Regarding `COc1ccc(CCC2CCN(CCc3ccc(F)cc3)CC2)cc1` [Compound 25], the Ki came out at 60 ± 5 nM in assay [1] (setting [4]) and 470 ± 67 nM in assay [3]. Besides, the IC50 in assay [2] was determined as 1420 ± 384 nM.
As for `COc1cccc(CCN2CCC(CCc3ccccc3OC)CC2)c1` [Compound 26, 1-(3-methoxyphenethyl)-4-(2-methoxyphenethyl)piperidine], the Ki in assay [1] (setting [4]) was 13 ± 1.5 nM; in assay [1] (synaptic vesicle preparations, summary of Table 1, read-out: inhibition of [3H]DA uptake, Ki), 9 to 20 nM; in assay [3] it was 150 to 190 nM and 150 nM. In assay [2], the IC50 came to 607 ± 25.5 nM.
As for `COc1ccc(CCN2CCC(CCc3ccccc3OC)CC2)cc1` [Compound 27], the figures for the Ki in assay [1] (setting [4]) and in assay [3] were 43 ± 2.8 nM and 500 ± 100 nM, respectively. Moreover, the IC50 in assay [2] was 479 ± 109 nM.
Consider `Fc1ccc(CCC2CCN(CCc3ccccc3)CC2)c(F)c1` [Compound 30], for which the Ki was 53 ± 5.5 nM in assay [1] (setting [4]) and 530 ± 110 nM in assay [3]. Moreover, the IC50 in assay [2] came to 552 ± 99.1 nM.
In the same order, the values of `COc1ccccc1CCN1CCC(CCc2ccc(F)cc2F)CC1` [Compound 31] are 41 ± 12 nM, 350 ± 48 nM and 317 ± 24.8 nM.
For `COc1cccc(CCN2CCC(CCc3ccc(F)cc3F)CC2)c1` [Compound 32], the Ki was determined as 29 ± 5.5 nM in assay [1] (setting [4]) and 270 ± 15 nM in assay [3]. Moreover, the IC50 in assay [2] was found to be 327 ± 35.3 nM.
For `COc1ccc(CCN2CCC(CCc3ccc(F)cc3F)CC2)cc1` [Compound 33], the Ki in assay [1] (setting [4]) is 70 ± 5.1 nM; in assay [3], 1300 ± 170 nM. For the same compound, the IC50 in assay [2] was determined as 1070 ± 152 nM.
Turning to `Fc1ccc(CCC2CCN(CCc3ccccc3Cl)CC2)c(F)c1` [Compound 34], the figures for the inhibitory constant (Ki) in assay [1] (setting [4]) and in assay [3] were 110 ± 19 nM and 240 ± 38 nM, respectively.
In the case of `Fc1ccc(CCN2CCC(CCc3ccc(F)cc3F)CC2)cc1` [Compound 35], the Ki in assay [1] (setting [4]) was found to be 43 ± 14 nM; in assay [3] it was 1450 ± 240 nM. Further, the IC50 in assay [2] came out at 201 ± 32.7 nM.
For `COc1ccc(CCC2CCN(CCc3ccccc3)CC2)c(F)c1` [Compound 36], the Ki in assay [1] (setting [4]) turned out to be 120 ± 8.5 nM; in assay [3] it was 290 ± 64 nM.
On to `COc1ccc(CCC2CCN(CCc3ccccc3OC)CC2)c(F)c1` [Compound 37], for which the inhibitory constant (Ki) in assay [1] (setting [4]) is 76 ± 10 nM; in assay [3], 330 ± 18 nM. Also, the IC50 in assay [2] amounted to 2870 ± 760 nM.
For the compound `COc1ccc(CCN2CCC(CCc3cc(F)cc(F)c3)CC2)cc1` [Compound 45], the Ki amounted to 120 ± 28 nM in assay [1] (setting [4]) and 2030 ± 130 nM in assay [3].
The like results for `Fc1cc(F)cc(CCC2CCN(CCc3ccccc3Cl)CC2)c1` [Compound 46] were, in that order, 180 ± 68 nM and 660 ± 58 nM.
Regarding `c1ccc(CCC2CCN(Cc3ccccc3)CC2)cc1` [Compound 48], the Ki was 190 ± 63 nM in assay [1] (setting [4]) and 21700 ± 2080 nM in assay [3].
Turning to `COc1cccc(CN2CCC(CCc3ccccc3)CC2)c1` [Compound 50], the Ki in assay [1] (setting [4]) is 190 ± 20 nM; in assay [3], 12700 ± 4280 nM.
The like results for `COc1ccc(CN2CCC(CCc3ccccc3)CC2)cc1` [Compound 51] were, in that order, 250 ± 27 nM and 6230 ± 560 nM.
In the same order, the values of `Clc1ccccc1CN1CCC(CCc2ccccc2)CC1` [Compound 52] are 270 ± 42 nM and 44500 ± 17800 nM.
As to `Fc1ccc(CN2CCC(CCc3ccccc3)CC2)cc1` [Compound 53], the Ki in assay [1] (setting [4]) came to 210 ± 12 nM; in assay [3] it was 10100 ± 580 nM.
As for `COc1ccc(CCN2CCN(CCc3ccc(OC)cc3)CC2)cc1` [Compound 57], the Ki in assay [1] (setting [4]) amounted to 410 ± 5 nM; in assay [3], 6630 ± 840 nM.
The like results for `c1ccc(CCN2CCCN(CCc3ccccc3)CC2)cc1` [Compound 65] were, in that order, 190 ± 17 nM and 3170 ± 550 nM.
The like results for `COc1ccccc1CCN1CCCN(CCc2ccccc2OC)CC1` [Compound 66] were, in that order, 190 ± 26 nM and 2020 ± 110 nM.
The like results for `COc1ccc(CCN2CCCN(CCc3ccc(OC)cc3)CC2)cc1` [Compound 68] were, in that order, 250 ± 15 nM and 2880 ± 250 nM.
Turning to `Clc1ccccc1CCN1CCCN(CCc2ccccc2Cl)CC1` [Compound 69], the Ki in assay [1] (setting [4]) stood at 170 ± 25 nM; in assay [3], 930 ± 21 nM.
